Source: patent publication US7910624B1, “Compositions for the treatment of blood disorders” (The Trustees of Boston University, priority 1995, dated 2011)

Experiments:
[1] = system: erythroid cells (peripheral blood cells); experiment: Erythroid cell viability by Calcein-AM fluorescent staining (FIG. 2); type: cell-based; settings: 0.5 mM
Description: Compositions were tested for the ability to directly stimulate erythroid cell growth. Cell growth stimulation is a useful property for an agent to be used to treat anemias and distinguishes such agents from the cytotoxic drugs currently being tested for treatment of hemoglobinopathies. Cell viability analyses were performed using fluorescent staining to detect living cells. Cells were in log phase of growth in 6-well dishes when used in proliferation assays. For enumeration of living cells, wells were washed once with medium to remove nonadherent or dead cells. Remaining live cells were labeled with 2 μM 2′,7′-bis-(carboxyethyl)-5-(and 6)-carboxy-fluorescein acetoxy-methyl ester (Calcein-AM) (Molecular Probes; Eugene, Oreg.) for 20 minutes at 37° C. and washed once. Fluorescence intensity of live cells was read on a CytoFluor 2300 Fluorescence Plate Scanner (Millipore; Bedford, Mass.) at excitation and emission wavelengths of 485 and 530 nm, respectively. The fluorescence intensity of a well was proportional to the number of living cells in the well. Background fluorescence was measured separately for each plate and subtracted from all readings. Each experiment was performed in triplicate or quadruplicate. The standard deviation (SD) of repetitive readings was less than 30% of the mean. Results are depicted in FIG. 2.

human erythroid cells = experiment: DNA fragmentation by flow cytometry (propidium iodide); type: cell-based; settings: for effect in DNA fragmentation assays: summary statement
Description: (§1) Such activities might limit their utility for treatment of anemias such as occur in thalassemia, but alternatively would be useful for anticancer effects. To determine cell viability, human erythroid cells were cultured in the presence and absence of these compounds for 4 days and the amount of DNA fragmentation which occurred was measured.
Flow cytometric determination of DNA profiles and DNA fragmentation were determined. Cytometric analysis was performed with a FACScan (Becton Dickenson Instruments; Columbia, Md.). The data analysis and display were performed using the Cell-Fit software program. Approximately 0.5×10^6 cells were washed twice with PBS and resuspended in 1 ml of 1% sodium citrate, 0.1% Triton X-100 and […] of propidium iodide/ml. Resulting permeabilized cells were kept in the dark at 4° C. overnight before DNA profile or DNA fragmentation analysis (Table 4).

[2] = system: patient with thalassemia intermedia; experiment: Isobutyramide treatment of a patient with thalassemia, blood counts and hemoglobin; type: in vivo, human; settings: 50 mg/kg 3 days/week
Description: This patient received isobutyramide at 50 mg/kg for 3 days/week over the course of the study.

[3] = system: Human mammary carcinoma cells (MCF-7); experiment: Human mammary carcinoma cell viability by FACS; type: cell-based; settings: 1.0 mM; 4 days
Description: Human mammary carcinoma cells (MCF-7) were cultured alone (controls) and with arginine butyrate or isobutyramide for 4 days. Viability was assayed by FACS after incubation with a fluorescent dye taken up by viable cells (FIG. 6). Growth was decreased by 50% with isobutyramide at 1.0 mM, about 60% with arginine butyrate at 0.5 mM, and greater than 90% with arginine butyrate at 1.0 mM.

[4] = system: system A transport in K562 cells and nucleated erythroblasts from fetal liver; experiment: System A (neutral amino acid) transport, 3H-MAIB uptake; type: cell-based, human; settings: 1 hour incubation; FIG. 12
Description: Inhibition of nutrient uptake is undesirable for treatment of anemias. Methyl aminoisobutyric acid (MAIB) labeled with tritium (^3H) is normally taken up by system A amino acid transport. Cold (unlabeled) compounds were added to cultures containing ^3H-MAIB and incubated for 1 hour. Cells were harvested and the amount of ^3H taken up by cells was quantitated by scintillation counting.

K562 cells = experiment: Dose response, total and viable cells by trypan blue exclusion (FIG. 3); type: cell-based, human; settings: up to 2.0 mM, day 4
Description: FIG. 3 A FIG. 3E Cell viability as determined by the comparative numbers of total and viable K562 cells in the presence of increasing concentrations of (A) phenoxyacetic acid, (B) dihydrocinnamic acid, (C) butyric acid ethyl ester, (D) arginine butyrate, and (E) isobutyramide.
Dose response curves at dosages of up to 2.0 mM were also determined for phenoxyacetic acid (PAA; FIG. 3A), dihydrocinnamic acid (DHC; FIG. 3B), butyric acid ethyl ester (BAEE; FIG. 3C), arginine butyrate (AB; FIG. 3D) and isobutyramide (IBT; FIG. 3E). Cells were counted on day 4 of treatment and viable cells identified by trypan blue exclusion.

[5] = system: erythroid progenitor cells cultured from human cord blood; experiment: Fetal globin expression in human cell cultures (3H-leucine labelled globin chains, densitometry); type: cell-based
Description: Compositions were tested for activity in inducing fetal globin expression and protein production in erythroid progenitor cells cultured from human cord blood and analyzed as described by S. P. Perrine et al. (Blood 74: 454-60, 1989). Briefly, mononuclear cells were cultured in IMDM with 30% fetal calf serum and 2 units erythropoietin per ml to induce erythroid differentiation. Colonies were harvested on day 12-13, incubated with radio-labelled (^3H) leucine, and further incubated in leucine-free media, still in the presence of compounds, overnight. Globin composition in the erythroid cells was analyzed by laser densitometry of electrophoretically separated globin chains stained with Coomassie blue, and by autoradiography. Treated cells were incubated for 12-13 days (Table 2, Experiments A and B) or overnight (Table 2, Experiment C) in the presence of the indicated compounds and compared to untreated control cells cultured from the same human subject.

[6] = system: Human erythroleukemia cells; experiment: Fetal globin mRNA in erythroleukemia cells by primer extension; type: cell-based; settings: 1.0 mM; 4 days
Description: Compounds were tested for increased expression of the human globin genes in human erythroid cells. In addition, as the cell line being tested is a tumor cell line, the assay determines if differentiation, a growth inhibitory effect on cancer cells, is induced by the compounds tested. Human erythroleukemia cells were cultured in RPMI media with 10% fetal calf serum alone or with treatment with various compounds for 4 days. Globin mRNA was quantitated by primer extension analysis. Fetal globin mRNA was compared to the amount of fetal globin mRNA produced in untreated cells during the same culture period. The quantitation was expressed as a percent of alpha globin mRNA which was constant. Results are expressed proportional to α-globin mRNA (Table 3).

[7] = system: human erythroid cell line K562; experiment: Cell viability / growth of K562 by Calcein-AM fluorescence; type: cell-based; settings: 0.5 mM; over 3 days
Description: as §1
Cell viability analyses were performed using fluorescent staining to detect living cells. Cells were in log phase of growth in 6-well dishes when used in proliferation assays. For enumeration of living cells, wells were washed once with medium to remove nonadherent or dead cells. Remaining live cells were labeled with Calcein-AM for 20 minutes at 37° C. and washed once. Fluorescence intensity of adherent live cells was read on a CytoFluor 2300 Fluorescence Plate Scanner (Millipore; Bedford, Mass.) at excitation and emission wavelengths of 485 and 530 nm, respectively. The fluorescence intensity of a well was proportional to the number of living cells in the well. Background fluorescence was measured separately for each plate and subtracted from all readings. Each experiment was performed in triplicate or quadruplicate. The standard deviation (SD) of repetitive readings was less than 30% of the mean.
At higher concentrations, still easily achievable in vivo, arginine butyrate (0.5 mM) and dihydrocinnamic acid (greater than 0.5 mM) inhibited growth of this tumor cell line by approximately 50%. Therefore, these compounds are also useful as anti-tumor agents.

anemic juvenile baboons = experiment: In vivo reticulocyte proliferation and globin expression in phlebotomized anemic baboons; set-up: species or system baboon; settings: for fetal reticulocytes on treatment: 4 days, baseline 4%
Description: Experiments were performed to determine if administration of the chemical compositions could induce fetal globin gene expression in an in vivo model similar to humans (S. P. Perrin et al., Brit. J. Haematol. 88:555-61, 1994). Briefly, chemicals were prepared as sterile pharmaceutical solutions in pH adjusted sterile water. A variety of chemical compositions were administered sequentially to some baboons. After administration of one compound, a wash-out period with no compound administration was maintained until reticulocytes returned to base line prior to administration of the next compound. This was done, at least partly, to compare the magnitude of response which occurred within the same individual animal to different compounds.
Briefly, juvenile female baboons (2 years old) were catheterized with arterial and venous catheters and phlebotomized gradually every day to maintain a moderate anemia of 7.0 to 7.5 grams hemoglobin/dl. Fetal reticulocytes, the newly produced red blood cells containing fetal globin, were assayed using a monoclonal antibody against fetal globin (HbF) as described by G. Dover et al. (Blood 67:735-38, 1986). Briefly, blood was stained with two antibodies, one specific for reticulocytes and another against fetal globin protein. The amount of antibody bound cells was determined by FACS analysis. Globin chain synthesis was assayed as described by J. B. Clegg et al. (J. Mol. Biol. 19:91-108, 1966). Briefly, reticulocytes were radio-labeled with ^3H-leucine which was incorporated in equal proportions into actively synthesized globin chains. After incubation in leucine-free media, cells were washed, and globin proteins were separated and purified by column chromatography. Radioactivity incorporated into each peak is compared and the ratios of gamma to gamma plus beta globin calculated. Each animal served as its own control with baseline monitoring assays performed for 4-6 weeks before any drug was administered. Phlebotomy was continued daily, so that peripheral HbF levels in the animals were not considered to be accurate over the short treatment time-frames and were not monitored. Safety monitoring was performed by frequent physical examinations, quantitation of food eaten, activity and frequent chemistry and hematology monitoring. Complete blood counts were assayed before, during and after treatment. Results presented were not adjusted to account for the daily phlebotomy.

[8] = system: erythroblast culture from peripheral blood of patients with sickle cell anemia; experiment: Induction of fetal globin in erythroblasts by steel factor; type: cell-based, human
Description: Peripheral blood was obtained from patients with sickle cell anemia. Mononuclear cells were isolated on Ficoll-Hypaque gradients. One culture was treated with 100 ng/ml steel factor for 13 days and compared with an untreated control. […] A second culture was incubated overnight with an identical dose of steel factor Plus ^3H-leucine. Amounts of labeled globin proteins synthesized in untreated (FIG. 5A) and steel factor treated (FIG. 5B) cells were determined by autoradiography and quantitated (scanned) by laser densitometry. […] The increase observed included both G-γ, and A-γ globin proteins.

[9] = 1.0 mM to 2.0 mM, untreated cells 26%
[10] = 2.0 mM, 4 days, controls 26%, 22%
[11] = 25 and 100 μg/kg subcutaneously

`CC(C)C(N)=O` [IBT, isobutyramide] was tested, and the “erythroid cell growth and proliferation compared to untreated controls (FIG. 2)” value [1] was “either had no effect or stimulated erythroid cell growth and proliferation”, the “Degraded DNA” value (human erythroid cells; [9]) was 44% and the “Degraded DNA” value (human erythroid cells; [10]) was 34%. For the same compound, the “effect in DNA fragmentation assays” value (human erythroid cells) was “decrease cell viability”, the “fetal globin (HbF)” value ([2]; four month study period) was “lack of increased fetal globin” and the “rise of hematocrit (Hct)” value ([2]; four month study period) was 5.8%. The “rise of hemoglobin (Hgb)” value ([2]; four month study period) was 1.6 g/dL, the “rise of reticulocytes (Retics)” value ([2]; four month study period) was “about 50%” and the rise of total red blood cells (RBC) ([2]; four month study period) was about 1e+06 cells/µL. For the same compound, the “Hemoglobin-A1 and hemoglobin-A2 levels” value ([2]; throughout the study) was “approximately constant”, the Retics ([2]; Day 8) was 2.5 ×10^6 cells and the HbF ([2]; Day 22) was 0.4. The Retics ([2]; Day 22) was 2.0 ×10^6 cells, the Hgb-A2 ([2]; Day 29) was 7.0 and the Retics ([2]; Day 29) was 2.0 ×10^6 cells. The HbF ([2]; Day 36) was 0.4, the Retics ([2]; Day 43) was 2.0 ×10^6 cells and the RBC ([2]; Day 96, 50 mg/kg) was 7.3e+06 cells/µL. The “decrease of growth of MCF-7” value [3] was 50% and the “system A transport of amino acids (3H-MAIB uptake)” value [4] was “inhibited the neutral amino acid transport mechanism”.
In the case of `CCCC(=O)OCC` [BAEE, butyric acid ethyl ester], the “erythroid cell growth and proliferation compared to untreated controls (FIG. 2)” value [1] is reported as “either had no effect or stimulated erythroid cell growth and proliferation”, the “proliferation (dose response, FIG. 3)” value (K562 cells) is reported as “did not significantly inhibit proliferation” and the “Gamma Increase” value ([5]; Exp. A, 0.1 mM, 12-13 days, above untreated cells) is reported as 13.0%. For the same compound, the “Gamma Increase” value ([5]; Exp. B, 0.2 mM, 12-13 days) was 8.5%, the “Gamma Increase” value ([5]; Exp. C, 0.1 mM, overnight) was 12.5% and the “induction of fetal globin mRNA in human cells” value [6] was “significantly increased”. For the same compound, the “growth of K562” value [7] was “either did not inhibit, or slightly enhanced growth”, the “Degraded DNA” value (human erythroid cells; [9]) was 13.8% and the “Degraded DNA” value (human erythroid cells; [10]) was 13.8%. For the same compound, the “effect in DNA fragmentation assays” value (human erythroid cells) was “reduce DNA fragmentation”, the “increase of fetal reticulocytes above basal levels” value (anemic juvenile baboons; intravenous 3 days, 500 to 1,000 mg/kg per day) was “over 1,100%” and the “increase of fetal reticulocytes” value (anemic juvenile baboons; intravenous 3 days, 500 to 1,000 mg/kg per day (FIG. 11)) was 11.3 fold.
With “steel factor: hematopoietic factor, also referred to as kit ligand, mast cell growth factor and stem cell factor” the “gamma globin expression after treatment” value ([8]; 100 ng/ml overnight plus 3H-leucine, increased from 17.6%) was 43.3%, the “gamma globin expression in BFU-e cells after treatment” value ([8]; 100 ng/ml, 13 days, increased from 14%) was 23.3% and the “Gamma globin expression, mean increase” value ([8]; 100 ng/ml, 13 days, versus untreated control) was 16.1%. For the same compound, the “rise in numbers of newly-formed blood cells producing fetal globin” value (anemic juvenile baboons; [11]) was 300-500%, the “rise of fetal globin chain protein” value (anemic juvenile baboons; [11]) was 3 fold and the “total increase of gamma globin expression in the bone marrow” value (anemic juvenile baboons; [11]) was 9 fold. The “fetal globin chain protein after treatment” value (anemic juvenile baboons; 25 and 100 μg/kg subcutaneously, undetectable before treatment) was “about 3 % of total non-alpha globin”, the “fetal reticulocytes on treatment” value (anemic juvenile baboons; first dose regimen: 25 μg/kg subcutaneously once daily) was 15% and the “fetal reticulocytes on treatment” value (anemic juvenile baboons; second dose regimen: 100 μg/kg subcutaneously) was 12%.
